This note sets out measurements from patent US8288552B2, “Dihydropyridone amidesas P2X7 modulators” (Roche Palo Alto LLC, priority 2008, dated 2012).

This test concerns the target T1, P2X7 (UniProt Q99572).
T1 sequence (Q99572 1-595): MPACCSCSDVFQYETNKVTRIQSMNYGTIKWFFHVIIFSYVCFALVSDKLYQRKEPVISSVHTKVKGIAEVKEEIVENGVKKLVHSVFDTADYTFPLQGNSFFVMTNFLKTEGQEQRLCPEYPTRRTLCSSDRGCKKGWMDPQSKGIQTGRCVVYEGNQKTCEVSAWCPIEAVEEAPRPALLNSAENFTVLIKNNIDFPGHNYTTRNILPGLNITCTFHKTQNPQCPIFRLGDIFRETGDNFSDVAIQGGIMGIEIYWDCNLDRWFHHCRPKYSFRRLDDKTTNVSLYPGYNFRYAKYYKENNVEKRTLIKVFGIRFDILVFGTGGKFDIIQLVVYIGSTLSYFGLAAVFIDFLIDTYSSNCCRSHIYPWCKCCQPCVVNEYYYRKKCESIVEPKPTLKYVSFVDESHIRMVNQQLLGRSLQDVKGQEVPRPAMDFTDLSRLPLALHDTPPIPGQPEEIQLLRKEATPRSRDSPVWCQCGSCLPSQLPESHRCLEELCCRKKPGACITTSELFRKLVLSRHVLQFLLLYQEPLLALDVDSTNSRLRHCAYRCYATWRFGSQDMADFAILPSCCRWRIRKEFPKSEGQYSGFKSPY
Kind of test: P2X7 pKi of Table 1. It counts as cell-based. The protocol:
Intracellular Calcium Flux (FLIPR) Assay
Compound and Reagent Preparation
Stock solutions of compounds were prepared from powders as a 10 mM DMSO stock solution. These solutions were stored at RT during the two week period of these experiments to prevent freeze-thaw of the DMSO stocks. The DMSO stocks were added to the appropriate assay buffer at a concentration of 10 μM, and then diluted serially to the final concentrations that were tested. […] The aqueous solutions of compounds as well as ATP (Sigma A7699) and BzATP (Sigma B6396) were prepared fresh for each day of experiment.
1321N1 cells stably expressing the full length human P2X7 gene (1321N1-hP2X7) and HEK293 cells stably expressing the full length rat P2X7 gene (HEK293-rP2X7) were obtained from the Roche Cell Culture Facility. 1321N1-hP2X7 cells were grown in Dulbecco's Modified Eagle's Medium (DMEM) high glucose supplemented with 10% FBS and 250 μg/mL G418. HEK293-rP2X7 cells were grown in DMEM/F-12 supplemented with 10% FBS, 1 mM CaCl2, 2 mM MgCl2, 2 mM L-Glutamine and 500 μg/ml G418. Cells were split such that they never became >70% confluent.
Intracellular Calcium Flux (FLIPR)
On the day prior to the experiment, 1321N1-hP2X7 or HEK293-rP2X7 cells were released into suspension with calcium-free PBS+Versene and washed by centrifugation with calcium-free PBS to remove the Versene. Cells were resuspended in growth medium at a density of 2.5×10^5 cells/mL and seeded into black walled, clear bottom 96 well plates (50,000 cells/well) approximately 18 hr prior to intracellular calcium flux experiments.
On the day of the experiment, plates were washed with FLIPR buffer (calcium- and magnesium-free Hank's Balanced Salt Solution (HBSS) supplemented with 10 mM Hepes, 2.5 mM probenecid and 2 mM calcium chloride) using a BIO-TEK 96 channel plate washer and incubated with […] fluo-3 dye at 37° C. for one hr. The dye was then removed by plate washing and the cells were allowed to equilibrate for 20 min at room temperature with antagonist or vehicle (FLIPR buffer). Agonist (100 μM BzATP final concentration for hP2X7; 5 μM BzATP final concentration or rP2X7) was added online with the FLIPR and fluorescence measurements made at 1 sec intervals for 60 sec followed by 3 sec intervals for a further 4 min (5 min total). A final addition of 5 μM ionomycin was made and the maximal BzATP-evoked fluorescence normalized to the maximal ionomycin-evoked fluorescence.
One may read the pKi as −log10 of the Ki, conventionally taken in molar units. Higher therefore signals a low Ki. `COc1cc(C)c(NC(=O)C2=CNC(=O)C[C@H]2c2ccc(F)cc2)cc1OC` [Compound 42, (S)-4-(4-Fluoro-phenyl)-6-oxo-1,4,5,6-tetrahydro-pyridine-3-carboxylic acid (4,5-dimethoxy-2-methyl-phenyl)-amide] yielded a pKi of 7.993.
The same measure for `CCOc1cc(NC(=O)C2=CNC(=O)CC2c2cccc(F)c2)c(C)cc1Cl` (stereo not drawn) [Compound 70, 4-(3-Fluoro-phenyl)-6-oxo-1,4,5,6-tetrahydro-pyridine-3-carboxylic acid(4-chloro-5-ethoxy-2-methyl-phenyl)-amide]: 7.425; for `Cc1cc(Cl)c(NC(=O)C2=CNC(=O)C[C@H]2c2ccc(F)cc2)cc1OCCO` [Compound 129, (S)-4-(4-Fluoro-phenyl)-6-oxo-1,4,5,6-tetrahydro-pyridine-3-carboxylic acid[2-chloro-5-(2-hydroxy-ethoxy)-4-methyl-phenyl]-amide]: 7.265; for `Cc1ccc(C(C)O)cc1NC(=O)C1=CNC(=O)C[C@H]1c1cccc(F)c1` (stereo partly drawn) [Compound 119, (S)-4-(3-Fluoro-phenyl)-6-oxo-1,4,5,6-tetrahydro-pyridine-3-carboxylic acid[5-(1-hydroxy-ethyl)-2-methyl-phenyl]-amide]: 7.2.
In the case of `COC(=O)COc1cc(NC(=O)C2=CNC(=O)C[C@H]2c2ccc(F)cc2)c(C)cc1Cl` [Compound 125, (2-Chloro-5-{[(S)-4-(4-fluoro-phenyl)-6-oxo-1,4,5,6-tetrahydro-pyridine-3-carbonyl]-amino}-4-methyl-phenoxy)-acetic acid methyl ester] it was 7.645; in that of `Cc1cc(Cl)c(OCCO)cc1NC(=O)C1=CNC(=O)C[C@@H]1c1ccc(F)cc1` [Compound 74, (R)-4-(4-Fluoro-phenyl)-6-oxo-1,4,5,6-tetrahydro-pyridine-3-carboxylic acid[4-chloro-5-(2-hydroxy-ethoxy)-2-methyl-phenyl]-amide], 6.63; in that of `COc1cc(Br)c(NC(=O)C2=CN(C)C(=O)CC2c2ccc(F)cc2)cc1OC` (stereo not drawn) [Compound 31, 4-(4-Fluoro-phenyl)-1-methyl-6-oxo-1,4,5,6-tetrahydro-pyridine-3-carboxylic acid(2-bromo-4,5-dimethoxy-phenyl)-amide], 6.525.
In turn, `COc1cc(Br)c(NC(=O)C2=CNC(=O)CC2c2ccc(F)cc2)cc1OC` (stereo not drawn) [Compound 7, 4-(4-Fluoro-phenyl)-6-oxo-1,4,5,6-tetrahydro-pyridine-3-carboxylic acid(2-bromo-4,5-dimethoxy-phenyl)-amide] displayed a pKi of 7.463.
In the case of `COc1ccc(C)c(NC(=O)C2=CNC(=O)CC2c2cccc(F)c2)c1` (stereo not drawn) [Compound 20, 4-(3-Fluoro-phenyl)-6-oxo-1,4,5,6-tetrahydro-pyridine-3-carboxylic acid(5-methoxy-2-methyl-phenyl)-amide] it was 6.815; in that of `Cc1c(NC(=O)C2=CNC(=O)C[C@H]2c2ccc(F)cc2)cccc1C(=O)N(C)C` [Compound 110, (S)-4-(4-Fluoro-phenyl)-6-oxo-1,4,5,6-tetrahydro-pyridine-3-carboxylic acid(3-dimethylcarbamoyl-2-methyl-phenyl)-amide], 5.43; in that of `COc1cc(Br)c(NC(=O)C2=CNC(=O)C[C@@H]2c2ccccc2)cc1OC` [Compound 12, (R)-6-Oxo-4-phenyl-1,4,5,6-tetrahydro-pyridine-3-carboxylic acid(2-bromo-4,5-dimethoxy-phenyl)-amide], 6.155.
For the compound `Cc1ccc([C@H](C)O)cc1NC(=O)C1=CNC(=O)C[C@H]1c1ccc(F)cc1` [Compound 90, (S)-4-(4-Fluoro-phenyl)-6-oxo-1,4,5,6-tetrahydro-pyridine-3-carboxylic acid[5-((S)-1-hydroxy-ethyl)-2-methyl-phenyl]-amide], the negative logarithm of the Ki (pKi) is on record as 7.19.
The same measure for `COc1ccc(Br)c(NC(=O)C2=CNC(=O)CC2c2cccc(F)c2)c1` (stereo not drawn) [Compound 19, 4-(3-Fluoro-phenyl)-6-oxo-1,4,5,6-tetrahydro-pyridine-3-carboxylic acid(2-bromo-5-methoxy-phenyl)-amide]: 6.19; for `Cc1ccc(C(F)(F)F)cc1NC(=O)C1=CNC(=O)CC1c1cccc(F)c1` (stereo not drawn) [Compound 50, 4-(3-Fluoro-phenyl)-6-oxo-1,4,5,6-tetrahydro-pyridine-3-carboxylic acid(2-methyl-5-trifluoromethyl-phenyl)-amide]: 6.89; for `Cc1ccc(Br)c(NC(=O)C2=CNC(=O)CC2c2ccc(F)cc2)c1` (stereo not drawn) [Compound 38, 4-(4-Fluoro-phenyl)-6-oxo-1,4,5,6-tetrahydro-pyridine-3-carboxylic acid(2-bromo-5-methyl-phenyl)-amide]: 6.87.
The same measure for `Cc1ccc(C)c(NC(=O)C2=CNC(=O)C[C@@H]2c2ccc(F)cc2)c1` [Compound 55, (R)-4-(4-Fluoro-phenyl)-6-oxo-1,4,5,6-tetrahydro-pyridine-3-carboxylic acid (2,5-dimethyl-phenyl)-amide]: 7.535; for `Cc1cc(Cl)c(OCCO)cc1NC(=O)C1=CNC(=O)C[C@H]1c1ccc(F)cc1` [Compound 73, (S)-4-(4-Fluoro-phenyl)-6-oxo-1,4,5,6-tetrahydro-pyridine-3-carboxylic acid[4-chloro-5-(2-hydroxy-ethoxy)-2-methyl-phenyl]-amide]: 7.63.
The same measure for `COc1cc(Br)c(NC(=O)C2=CNC(=O)C[C@H]2c2ccccc2)cc1OC` [Compound 13, (S)-6-Oxo-4-phenyl-1,4,5,6-tetrahydro-pyridine-3-carboxylic acid(2-bromo-4,5-dimethoxy-phenyl)-amide]: 7.455.
Turning to `COc1cc(NC(=O)C2=CNC(=O)C[C@@H]2c2cccc(F)c2)c(Br)cc1C` [Compound 29, (R)-4-(3-Fluoro-phenyl)-6-oxo-1,4,5,6-tetrahydro-pyridine-3-carboxylic acid(2-bromo-5-methoxy-4-methyl-phenyl)-amide], the pKi was found to be 6.405.
In the case of `COc1cc(NC(=O)C2=CNC(=O)C[C@H]2c2cccc(F)c2)c(C)cc1F` [Compound 82, (S)-4-(3-Fluoro-phenyl)-6-oxo-1,4,5,6-tetrahydro-pyridine-3-carboxylic acid(4-fluoro-5-methoxy-2-methyl-phenyl)-amide] it was 7.975; in that of `COc1cc(C)c(NC(=O)C2=CNC(=O)C[C@H]2c2cccc(F)c2)cc1OC` [Compound 48, (S)-4-(3-Fluoro-phenyl)-6-oxo-1,4,5,6-tetrahydro-pyridine-3-carboxylic acid (4,5-dimethoxy-2-methyl-phenyl)-amide], 7.7225.
`COc1ccc(C)c(NC(=O)C2=CNC(=O)C[C@@H]2c2cccc(F)c2)c1` [Compound 45, (R)-4-(3-Fluoro-phenyl)-6-oxo-1,4,5,6-tetrahydro-pyridine-3-carboxylic acid(5-methoxy-2-methyl-phenyl)-amide] returned a negative logarithm of the Ki (pKi) of 6.765.
The compound `Cc1ccc(S(N)(=O)=O)cc1NC(=O)C1=CNC(=O)CC1c1ccc(F)cc1` (stereo not drawn) [Compound 67, 4-(4-Fluoro-phenyl)-6-oxo-1,4,5,6-tetrahydro-pyridine-3-carboxylic acid(2-methyl-5-sulfamoyl-phenyl)-amide] came in with a pKi of 5.515.
In the case of `Cc1c(NC(=O)C2=CNC(=O)C[C@H]2c2ccc(F)cc2)cc(OCCO)c(F)c1F` [Compound 121, (S)-4-(4-Fluoro-phenyl)-6-oxo-1,4,5,6-tetrahydro-pyridine-3-carboxylic acid [3,4-difluoro-5-(2-hydroxy-ethoxy)-2-methyl-phenyl]-amide] it was 7.41.
